Counter-ions that a name gives are not always drawn.
Columns and labels:
[1] = target: T1, Raf and/or Mek kinase (human c-Raf, GST-MEK1) (Homo sapiens, UniProt P04049+Q02750); experiment: Raf/Mek kinase cascade assay; assay type: biochemical; details: c-Raf dependent activation of GST-MEK and GST-MAPK, phospho-MAPK ELISA; (a)/(b)/(c) = average of two/three/four runs
T1 construct: Sf9 insect cell lysate containing full length 6his-tagged recombinant human c-Raf; 6His; host or cells: Sf9 insect cells (c-Raf, used as lysate); E. coli (MEK1-GST, GST-MAPK)
Method: Raf/Mek Kinase Cascade Assay Procedure
(Specific Activity: ˜200 U/ml). Human Non-active Mek-1-GST and human GST-MAP kinase (recombinant proteins produced in E. coli).
Stock Solutions Raf/Mek Cascade Assay:
• 1. Assay Dilution Buffer (ADB): 20 mM MOPS, pH 7.2, 25 mM β-glycerol phosphate, 5 mM EGTA, 1 mM sodium orthovanadate, 1 mM dithiothreitol; • 2. Magnesium/ATP Cocktail: 500 μM cold ATP and 75 mM magnesium chloride in ADB; • 3. Active Kinase: Human Active c-Raf: Use at 0.4 U per assay point; • 4. Non-active GST-MEK1: Use at 0.1 μg per assay point; and • 5. Non-active GST-p42 MAP Kinase: Use at 1.0 μg per assay point. Stock Solutions ELISA: • 1. TBST-Tris (50 mM, pH 7.5), NaCl (150 mM), Tween-20 (0.05%); • 2. Superblock (Pierce); • 3. Anti-GST Ab (Pharmacia); • 4. Anti-Phospho MAPK (Sigma); and • 5. Anti-Mouse Ab/Europium conjugate (Wallac). Assay Procedure: First Stage: c-Raf Dependent Activation of GST-MEK and GST-MAPK • 1. Add […] of ADB per assay (i.e. per well of a 96 well plate); • 2. Add 10 ml of 0.5 mM cold ATP and 75 mM magnesium chloride in ADB; • 3. Add 2 ml of c-Raf (0.4 U/assay), in conjunction with 1.6 ml non-active MEK1 (0.4 […]/assay); • 4. Add 4 ml of non-active GST-p42 MAP Kinase (1.0 mg/assay); • 5. Incubate for 60 minutes at 30° C. in a shaking incubator; • 6. Transfer this mixture to an anti-GST Ab coated 96 well plate (Nunc Immunosorb plates coated o/n with a-GST, then blocked with Pierce Superblock); • 7. Incubate for 60 minutes at 30° C. in a shaking incubator; • 8. Wash 3× with TBST, add Anti-Phospho MAPK (Sigma) (1:3000); • 9. Incubate for 60 minutes at 30° C. in a shaking incubator; • 10. Wash 3× with TBST, add Anti-Mouse Ab/Europium conjugate (Wallac) (1:500); • 11. Incubate for 60 minutes at 30° C. in a shaking incubator; • 12. Wash 3× with TBST, Read plates in Wallac Victor model Plate Reader; and • 13. Collect data analyze in Excel for single point and IC50 determinations.
Single point assay—% inhibition at […] (% Inhibition=1−cpd·treated sample/untreated control). IC50 determinations—done on compounds from single point assays with >80% inhibition. Typically, the Raf/Mek assay is run at compound concentrations from 10 μM to 1 nM in half log dilutions. (% inhibition is determined for each compound concentration). The results obtained measure Raf and/or Mek kinase inhibition, and for representative compounds of this invention are listed in Table 1.

LoVo = experiment: Cell based screen for inhibitors of Raf and/or Mek kinase (SRB), LoVo; design: species or system human; details: LoVo cells, four days incubation, (a)/(b)/(c) = average of two/three/five runs
Method: (§1) Cell Based Screen for Inhibitors of Raf and/or Mek Kinase. Materials
Cell Lines: Human adenocarcinoma cell line LoVo, known to be growth inhibited by low nM concentrations of a reference standard inhibitor of Ras and human adenocarcinoma cell line CaCo-2, known to be growth resistant to the same reference compound.
Cell Media: RPMI 1640 with 10% Fetal Bovine Serum supplemented with L-glutamine and Penicillin/Streptomycin.
(§2) Cells are plated at 2000 cells per well for cell line LoVo and 1500 cells for cell line CaCo-2 in 96 well plates. Cells are plated in media (200 μl) and allowed to adhere overnight at 37° C. At 24 hours post plating, compounds are added directly at a volume of 0.5 μl. For the qualitative screen (compounds screened at 25 μM) compound is added directly to cells. For the quantitative screen, compound is first diluted in DMSO to generate concentrations of compound or reference standard of: 1, 5, 10 and 25 μM. It is advisable to make the dilutions in an identical 96 well plate so that compounds can be added using a multichannel micropipettor set at 0.5 μl. The cells are then incubated for four days after which the media is removed using a 12 well manifold by first tipping the plate forward at a 45 degree angle and then inserting the manifold in an upright orientation to prevent the tips of the manifold from disturbing cells at the bottom of the plate. 200 μl of normal saline is then added to each well using an 8 well multichannel pipettor, followed by the careful addition of 50 μl of 50% TCA. The plates are then incubated for 2 hours at 4° C., after which the supernatant is removed using the same technique as above and the plated cells are washed twice with 200 μl water. The plates are then air dried and 50 μl of SRB stock solution is carefully added so that the entire bottom of each well is covered. This again can be done using an 8 well multichannel pipettor. The SRB is incubated with fixed cells for 15 minutes at room temperature after which the SRB is removed with the manifold as described above and the plates washed twice with 350 μl of 1% acetic acid per well each time. The plates are then air dried after which the bound SRB is released from protein by the addition of 200 μl of Tris base. Resolubilizing the SRB is aided by placing the plates on a rotator for 15-30 minutes. The absorbance of each well is determined at 550 or 562 nm using a microtiter plate reader.
(§3) Each compound or dilution thereof is performed in triplicate. Outliers are identified by visual inspection of the data. Each plate should have a “0” control (vehicle only).
(§4) Quantitative Assay: A standard curve is constructed by plotting the concentration of compound against the average absorbance calculated at that concentration. A curve is plotted and the concentration at which the curve passes through the 50% the absorbance mark seen in the “0” control well is the IC50 calculated for that compound. Multiple entries for a given compound indicate that it is tested multiple times.

BxPC3 = experiment: Cell based screen for inhibitors of Raf and/or Mek kinase (SRB), BxPC3; details: Homo sapiens, BXPC-3, BxPC3 cells, (a)/(b) = average of two/three runs
Method: [The procedure below names another cell line; the source lists this cell line under the same test.] as §1, §2, §3, §4

T1 sequence (P04049 whole entry): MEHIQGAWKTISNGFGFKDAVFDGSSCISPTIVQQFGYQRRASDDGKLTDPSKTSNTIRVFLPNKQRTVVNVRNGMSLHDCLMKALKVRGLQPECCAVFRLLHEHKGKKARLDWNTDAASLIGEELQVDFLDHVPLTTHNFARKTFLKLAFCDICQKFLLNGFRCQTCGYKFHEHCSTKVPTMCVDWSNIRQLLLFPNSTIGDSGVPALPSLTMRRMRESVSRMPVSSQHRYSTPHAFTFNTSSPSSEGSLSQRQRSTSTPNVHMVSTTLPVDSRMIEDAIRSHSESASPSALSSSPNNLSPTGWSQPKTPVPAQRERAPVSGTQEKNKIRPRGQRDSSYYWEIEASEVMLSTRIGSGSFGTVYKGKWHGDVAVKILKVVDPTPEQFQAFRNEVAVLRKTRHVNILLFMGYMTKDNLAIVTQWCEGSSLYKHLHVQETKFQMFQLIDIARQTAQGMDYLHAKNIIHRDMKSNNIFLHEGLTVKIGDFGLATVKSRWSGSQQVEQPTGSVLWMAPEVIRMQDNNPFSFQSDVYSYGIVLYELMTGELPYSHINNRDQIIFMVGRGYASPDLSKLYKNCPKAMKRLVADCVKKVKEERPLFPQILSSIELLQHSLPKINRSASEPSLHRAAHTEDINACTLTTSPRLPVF
T1 sequence (Q02750 whole entry): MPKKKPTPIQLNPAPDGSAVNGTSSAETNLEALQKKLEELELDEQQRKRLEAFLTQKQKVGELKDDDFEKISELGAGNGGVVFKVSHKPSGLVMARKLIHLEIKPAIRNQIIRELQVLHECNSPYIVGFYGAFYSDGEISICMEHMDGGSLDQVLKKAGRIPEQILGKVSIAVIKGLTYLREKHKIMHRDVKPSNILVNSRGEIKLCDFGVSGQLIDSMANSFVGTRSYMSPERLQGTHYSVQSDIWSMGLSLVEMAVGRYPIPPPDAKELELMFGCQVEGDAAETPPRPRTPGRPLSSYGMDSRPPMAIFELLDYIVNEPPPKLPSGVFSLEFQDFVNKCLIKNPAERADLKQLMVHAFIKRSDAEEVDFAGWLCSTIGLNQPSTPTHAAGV

Compound `CNc1cc2c(Nc3ccc(Sc4nccn4C)c(Cl)c3)c(C#N)cnc2cc1N1CCC(N2CCCC2)CC1` [Example 30, 4-({3-Chloro-4-[(1-methyl-1H-imidazole-2-yl)thio]phenyl}amino)-6-(methylamino)-7-(4-pyrrolidin-1-ylpiperidin-1-yl)quinoline-3-carbonitrile] has an IC50 [1] of 220 nM, an IC50 (LoVo; Homo sapiens, 96 h) of 14 nM and an IC50 (BxPC3) of 30 nM. For the same compound, the melting point was 242 to 250 °C.

`COc1cc2c(Nc3ccc(Sc4nccn4C)c(Cl)c3)c(C#N)cnc2cc1N1CCC(N2CCOCC2)CC1` [Example 21, 4-({3-Chloro-4-[(1-methyl-1H-imidazole-2-yl)thio]phenyl}amino)-6-methoxy-7-(4-morpholin-4-ylpiperidin-1-yl)quinoline-3-carbonitrile] gave an IC50 [1] of 181 nM, an IC50 (LoVo; Homo sapiens, 96 h) of 20 nM and a melting point of 219 to 221 °C.

Work on `CCOc1cc2c(Nc3ccc(Sc4nccn4C)c(Cl)c3)c(C#N)cnc2cc1N1CCC(N2CCCC2)CC1` [Example 18, 4-({3-chloro-4-[(1-methyl-1H-imidazole-2-yl)thio]phenyl}amino)-6-ethoxy-7-(4-pyrrolidin-1-ylpiperidin-1-yl)quinoline-3-carbonitrile] yielded an IC50 [1] of 75 nM, an IC50 (LoVo; Homo sapiens, 96 h) of 27 nM and an IC50 (BxPC3) of 30 nM. It also gave a melting point of 203 to 207 °C.

`COc1cc2c(Nc3ccc(Sc4nccn4C)c(Cl)c3)c(C#N)cnc2cc1N1CCN(C2CCN(C)CC2)CC1` [Example 22, 4-({3-Chloro-4-[(1-methyl-1H-imidazole-2-yl)thio]phenyl}amino)-6-methoxy-7-[4-(1-methylpiperidin-4-yl)piperazin-1-yl]quinoline-3-carbonitrile] showed an IC50 [1] of 273 nM, an IC50 (LoVo; Homo sapiens, 96 h) of 80 nM and a melting point of 220 to 226 °C.

`COc1cc2c(Nc3ccc(Sc4ccccn4)cc3)c(C#N)cnc2cc1N1CCC(N2CCCC2)CC1` [Example 13, 6-Methoxy-4-[4-(pyridin-2-ylsulfanyl)phenylamino]-7-(4-pyrrolidin-1-yl-piperidin-1-yl)-quinoline-3-carbonitrile] showed an IC50 [1] of 1430 nM, an IC50 (LoVo; Homo sapiens, 96 h) of 470 nM and an IC50 (BxPC3) of 600 nM. It also gave a melting point of 182 to 184 °C.

In the case of `COCCOc1cc2c(Nc3ccc(Sc4nccn4C)c(Cl)c3)c(C#N)cnc2cc1N1CCC(N2CCCC2)CC1` [Example 17, 4-({3-Chloro-4-[(1-methyl-1H-imidazole-2-yl)thio]phenyl}amino)-6-(2-methoxyethoxy)-7-(4-pyrrolidin-1-ylpiperidin-1-yl)quinoline-3-carbonitrile], the IC50 [1] is reported as 320 nM, the IC50 (LoVo; Homo sapiens, 96 h) is reported as 31 nM and the melting point is reported as 238 to 241 °C.

For `COc1cc2c(Nc3ccc(Sc4nccn4C)c(Cl)c3)c(C#N)cnc2cc1OCCN1CCC(N2CCCC2)CC1` [Example 36, 4-{3-Chloro-4-[(1-methyl-1H-imidazole-2-yl)sulfanyl]anilino}-6-methoxy-7-{2-[4-(1-pyrrolidinyl)-1-piperidinyl]ethoxy}-3-quinolinecarbonitrile], the melting point was 127 to 130 °C.

With `CC(=O)N(C(C)=O)c1cc2c(Nc3ccc(Sc4nccn4C)c(Cl)c3)c(C#N)cnc2cc1N1CCC(N2CCCC2)CC1` [Example 28, N-Acetyl-N-[4-[3-chloro-4-(1-methyl-1H-imidazole-2-ylsulfanyl)-phenylamino]-3-cyano-7-(4-pyrrolidin-1-yl-piperidin-1-yl)quinolin-6-yl]acetamide] the IC50 [1] was 2390 nM, the IC50 (LoVo; Homo sapiens, 96 h) was 14 nM and the IC50 (BxPC3) was 8 nM. For the same compound, the melting point was 245 to 247 °C.

For `N#Cc1cnc2cc(N3CCC(N4CCCC4)CC3)c([N+](=O)[O-])cc2c1Cl` [Example 25, 4-chloro-6-nitro-7-(4-pyrrolidin-1-ylpiperidin-1-yl)quinoline-3-carbonitrile], the melting point was 255 to 265 °C (dec.).

Compound `Cn1ccnc1Sc1ccc(Nc2c(C#N)cnc3cc(N4CCC(N5CCCC5)CC4)c([N+](=O)[O-])cc23)cc1Cl` [Example 26, 4-({3-Chloro-4-[(1-methyl-1H-imidazole-2-yl)thio]phenyl}amino)-6-nitro-7-(4-pyrrolidin-1-ylpiperidin-1-yl)quinoline-3-carbonitrile] has a melting point of 220 to 230 °C.

With `COc1cc2c(Nc3ccc(Sc4nccn4C)c(Cl)c3)c(C#N)cnc2cc1N1CCC(N2CCCCC2)CC1` [Example 19] the IC50 [1] was 199 nM and the IC50 (LoVo) was 8 nM.

With `Cn1ccnc1Sc1ccc(Nc2c(C#N)cnc3cc(N4CCC(N5CCCC5)CC4)c(N)cc23)cc1Cl` [Example 27, 6-Amino-4-[3-chloro-4-(1-methyl-1H-imidazole-2-ylsulfanyl)phenylamino]-7-(4-pyrrolidin-1-yl-piperidin-1-yl)quinoline-3-carbonitrile] the melting point was 265 to 267 °C.

In the case of `COc1ccccc1Oc1ccc(Nc2c(C#N)cnc3cc(N4CCC(N5CCCC5)CC4)c(OC)cc23)cc1` [Example 12, 6-Methoxy-4-{[4-(2-methoxyphenoxy)phenyl]amino}-7-(4-pyrrolidin-1-ylpiperidin-1-yl)quinoline-3-carbonitrile, trifluoroacetate salt], the IC50 [1] is reported as 210 nM, the IC50 (LoVo; Homo sapiens, 96 h) is reported as 460 nM and the IC50 (BxPC3) is reported as 1400 nM.

`COc1cc2c(Nc3ccc(Sc4nccn4C)c(Cl)c3)c(C#N)cnc2cc1N1CCN(CCn2ccnc2)CC1` [Example 23, 4-({3-Chloro-4-[(1-methyl-1H-imidazole-2-yl)thio]phenyl}amino)-7-{4-[2-(1H-imidazole-1-yl)ethyl]piperazin-1-yl}-6-methoxyquinoline-3-carbonitrile] gave an IC50 [1] of 188 nM, an IC50 (LoVo; Homo sapiens, 96 h) of 474 nM and a melting point of 251 to 253 °C.

Work on `N#Cc1c[nH]c2cc(N3CCC(N4CCCC4)CC3)c([N+](=O)[O-])cc2c1=O` [Example 24, 6-Nitro-4-oxo-7-(4-pyrrolidin-1-ylpiperidin-1-yl)-1,4-dihydroquinoline-3-carbonitrile] yielded a melting point of 232 to 235 °C.
